This is an account of results in US5643958A, “Substituted amide derivatives” (Banyu Pharmaceutical Co., Ltd., priority 1994, dated 1997).

Experiment [1] relates to farnesyl-modification of Ras protein. The experiment can be described thus: Inhibitory activities against farnesyl-modification of Ras protein in NIH3T3 cells transformed by activated ras gene. The conditions noted are these: Mus musculus, 24 hours, read-out: 50% inhibitory concentrations against farnesyl-modification of Ras protein, IC50. It is filed as cell-based. As for the experimental part:
Using the compounds of the present invention, inhibitory activities against farnesyl-modification of Ras protein in NIH3T3 cells transformed by activated ras gene, were measured.
The NIH3T3 cells transformed by activated ras gene, were seeded on a culture plate and cultured for 3 days. Then, a compound of the preset invention in a predetermined concentration was added to the culture. In accordance with the method disclosed in J. Biol. Chem., vol. 268, p. 18415 (1993), the cells were cultured for 24 hours and then taken off from the plate, and the cells were dissolved. After centrifugal separation for 5 minutes under 12000 g, the supernatant was used as a cell extract. The cell extract was subjected to SDS polyacrylamide gel electrophoresis to separate farnesyl-modified Ras protein and non-farnesyl-modified Ras protein. The protein on the gel was transferred onto a nitrocellulose membrane, and an anti-Ras protein antibody was reacted as a probe (primary antibody reaction). An anti-primary antibody, a peroxidase inclusion (secondary antibody), was reacted, and then Ras protein was detected by a chemical fluorescence enhancing kit. The proportion of non-farnesyl-modified Ras protein was quantified by a densitometer and taken as the inhibitory activity.
The 50% inhibitory concentrations (IC50 values) of the compounds of the present invention against farnesyl-modification of Ras protein are shown in Table 2.

The next experiment concerns NIH/ras cells. The experiment can be described thus: Antitumor effects to transformed cells (NIH/ras) using active type human Ha-ras, cells transplanted subcutaneously to a nude mouse. It is filed as in vivo. The settings on record: once a day day 1 to 6; for Growth inhibition: day 7; for Weight of tumor, Average (g) ± standard deviation: tumor weighed day 7, control 0.22 ± 0.07. An excerpt:
(Antitumor effects to transformed cells (NIH/ras) using active type human Ha-ras)
^1) Tumor inoculation: 10^6 cells were transplanted subcutaneousl
^2) Dose: Each dose was intraperitonealy administered once a day from
the first day to the sixth day after the inoculation of the cells.
^3) Weight of tumor: On the seventh day after inoculation of the
cells, the tumors were weighed.
^4) Growth inhibition: (1(average weight of tumor of the treated
group/average weight of tumor of the control group)) × 100
*and **: Statistical analysis by ttest are 5% and 1%, respectively.

The target of experiment [2] is T1, protein-farnesyl transferase (PFT) (Rattus norvegicus, UniProt Q02293+Q04631).
T1 construct: a soluble fraction of rat's brain was fractionated; from tissue; host or cells: rat brain, soluble fraction; 30-50% ammonium sulfate cut, dialysis, Q-Sepharose column
In words: Inhibitory activities against protein-farnesyl transferase (PFT). Type of experiment: biochemical. The conditions noted are these: PFT derived from rat brain; 37° C.; preincubation 10 minutes, reaction 20 minutes; read-out: 50% inhibitory concentrations against PFT activities, IC50. As for the experimental part:
PFT was separated in such a manner that a soluble fraction of rat's brain was fractionated by means of 30%-50% saturated ammonium sulfate, further dialyzed and then subjected to column chromatography by Q-cephalose™ (manufactured by Pharmacia) (Reiss et al, Cell, vol. 62, p. 81-88 (1990)).
Measurement of PFT activities was conducted by using, as a prenyl acceptor, H-ras protein or a substance that biotin was added to N-terminal of a peptide corresponding to a 7 amino acid residue at C terminal of K-rasB protein (biotin-added Lys-Thr-Ser-Cys-Val-Ile-Met) and, as a prenyl doner, [^3 H]-labeled farnesylpyrophosphate (FPP) (Reiss et al, Methods: A Companion to a Methods in Enzymology, vol. 1, No. 3, p. 241-245 (1990)).
The [^3 H]-labeled farnesylpyrophosphate (22.5 Ci/mmol) was purchased from New England Nuclear Co. Non-labeled farnesylpyrophosphate was chemically synthesized from ditriethylammonium phosphate, trans-trans-farnesol and trichloroacetonitrile and purified by XAD-2-resin column and diethylaminoethylcellulose (Cornforth et al, Methods in Enzymology, vol. 15, p. 385-390 (1969)).
H-ras protein was expressed in Escherichia coli and purified (Gibbs et al, Proc. Natl. Acad. Sci., vol. 81, p. 5704-5708 (1984)).
The PFT reaction solution containing H-ras protein as the prenyl acceptor was 25 μl, and its composition was 50 mM Hepes pH7.5/50 μM ZnCl2 /5 mM MGCl2 /20 mM KCl/5mM DTT/0.6 μM all trans [^3 H]-farnesylpyrophosphate/25 μM H-ras protein/PFT derived from rat brain (Q-sephalose fraction). The reaction temperature was 37° C., the preincubation time was 10 minutes, and the reaction time was 20 minutes. […]
The enzymatic reaction product containing H-ras protein as the prenyl acceptor, was analyzed by SDS-PAGE (sodium dodecylsulfate/polyacrylamide gel electrophoresis). […]
The measurement of PFT activities using H-ras protein as the prenyl receptor, was also analyzed by a rapid separate method. […]

The mark [3] stands for this setting: 10 mg/kg/injection intraperitoneal.

`C[C@H]([C@H](C/C=C/c1nc2ccccc2o1)c1ccc2c(c1)OCO2)N(Cc1ccc2ccccc2c1)C(=O)C(O)=C(CC(=O)O)C(=O)OC(C)(C)C` [Example 69, 4-[N-{(1R,2R,4E)-5-(2-benzoxazolyl)-1-methyl-2-(3,4-methylenedioxyphenyl)-4-pentenyl}-N-(2-naphthylmethyl)carbamoyl]-3-tert-butoxycarbonyl-4-hydroxy-3-butenoic Acid]: the IC50 in experiment [1] was determined as 4.5 µM. Further, the Growth inhibition in the experiment with NIH/ras cells (setting [3]) turned out to be 23%; with NIH/ras cells (30 mg/kg/injection intraperitoneal), 59%. Further, the “Weight of tumor, Average (g) ± standard deviation” value amounted to 0.17 ± 0.09 g in the experiment on NIH/ras cells (setting [3]) and 0.09 ± 0.05 g in the experiment on NIH/ras cells (30 mg/kg/injection intraperitoneal, ** t-test 1%).

`COC(=O)c1ccc([C@H](C/C=C/c2nc3ccccc3o2)[C@H](C)N(Cc2ccc3sccc3c2)C(=O)C[C@@H](CC(=O)O)C(=O)O)cc1` (relative stereo) [Example 34, (2R^*)-2-[N-(5-benzo[b]thienylmethyl)-N-{(1RS,2RS,4E)-5-(2-benzoxazolyl)-2-(4-methoxycarbonylphenyl)-1-methyl-4-pentenyl}carbamoylmethyl]succinic Acid]: the IC50 in experiment [2] was 0.00053 µM.

Consider `C[C@H]([C@H](C/C=C/c1nc2ccccc2o1)c1ccc2c(c1)OCO2)N(Cc1ccc2ccccc2c1)C(=O)CC(CC(=O)O)(C(=O)O)C(=O)O` (racemic) [Example 46, 3-[N-{(1RS,2RS,4E)-5-(2-benzoxazolyl)-1-methyl-2-(3,4-methylenedioxyphenyl)-4-pentenyl}-N-(2-naphthylmethyl)-carbamoyl]-1,2,2-propanetricarboxylic Acid], for which, in experiment [1], the IC50 amounted to 18 µM.

Turning to `CC(C(CC=Cc1nc2ccccc2o1)c1ccc2c(c1)OCO2)N(Cc1ccc2ccccc2c1)C(=O)C(O)CCC(=O)O` (stereo not drawn) [Example 59, Sodium 4-[N-{(1RS,2RS,4E)-5-(2-benzoxazolyl)-1-methyl-2-(3,4-methylenedioxyphenyl)-4-pentenyl}-N-(2-naphthylmethyl)]carbamoyl-4-hydroxybutanoate], the IC50 in experiment [2] was 0.00046 µM.

As to `C[C@H]([C@H](C/C=C/c1nc2ccccc2o1)c1ccc2c(c1)OCO2)N(Cc1ccc2ccccc2c1)C(=O)CC(C(=O)O)C(CC(=O)O)C(=O)O` (mixture of isomers) [Example 45, 4-[N-{(1RS,2RS,4E)-5-(2-benzoxazolyl)-1-methyl-2-(3,4-methylenedioxyphenyl)-4-pentenyl}-N-(2-naphthylmethyl)carbamoyl]-1,2,3-butanetricarboxylic Acid], the IC50 in experiment [2] was 0.00015 µM; in experiment [1], 7.7 µM.
